Results: ChEMBL document CHEMBL5512605, “Targeted regulated cell death with small molecule compounds in colorectal cancer: Current perspectives of targeted therapy and molecular mechanisms” (Eur J Med Chem, 2024)
One block for each compound: values may come before it.

Assays:
SW480 [1] = assay: Cytotoxicity against human SW480 cells assessed as inhibition of cell viability by MTT assay; format: functional
HT-29 [2] = assay: Cytotoxicity against human HT-29 cells assessed as inhibition of cell viability by MTT assay; format: functional
SW-620 [3] = assay: Antiproliferative activity against human SW620 cells incubated for 48 hrs by CCK-8 method; format: functional, cell-based; conditions: SW-620, 48 h
HT-29 [4] = assay: Antiproliferative activity against human HT-29 cells incubated for 48 hrs by CCK-8 method; format: functional, cell-based; conditions: HT-29, 48 h
HCT-116 [5] = assay: Antiproliferative activity against human HCT-116 cells incubated for 72 hrs by CCK-8 method; format: functional
P2X purinoceptor 7 = P2X purinoceptor 7 (Homo sapiens, UniProt Q99572); assay: Antagonist activity at P2X7R (unknown origin)
P2X purinoceptor 7, sequence (Q99572 whole entry): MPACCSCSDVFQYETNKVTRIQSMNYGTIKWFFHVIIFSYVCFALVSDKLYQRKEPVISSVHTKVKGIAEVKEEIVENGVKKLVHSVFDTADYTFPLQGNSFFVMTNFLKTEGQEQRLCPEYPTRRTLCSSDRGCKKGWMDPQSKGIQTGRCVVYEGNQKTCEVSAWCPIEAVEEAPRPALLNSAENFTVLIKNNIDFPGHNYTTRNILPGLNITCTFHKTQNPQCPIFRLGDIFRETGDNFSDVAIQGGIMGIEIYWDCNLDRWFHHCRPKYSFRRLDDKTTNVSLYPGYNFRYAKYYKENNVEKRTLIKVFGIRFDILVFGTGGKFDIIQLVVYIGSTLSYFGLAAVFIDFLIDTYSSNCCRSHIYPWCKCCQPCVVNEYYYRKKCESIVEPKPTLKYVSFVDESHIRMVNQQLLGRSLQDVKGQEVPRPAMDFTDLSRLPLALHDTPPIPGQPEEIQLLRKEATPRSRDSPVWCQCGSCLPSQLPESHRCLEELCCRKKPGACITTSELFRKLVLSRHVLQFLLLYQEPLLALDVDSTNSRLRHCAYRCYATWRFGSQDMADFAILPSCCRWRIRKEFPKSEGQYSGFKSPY

SW-620 [6] = assay: Antiproliferative activity against human SW620 cells incubated for 72 hrs by CCK-8 method; format: functional
SW-620 [7] = assay: Antiproliferative activity against human SW620 cells assessed as inhibition of cell growth by CellTiter 96 Aqueous One Solution Cell Proliferation Assay; format: functional, cell-based
SW480 [8] = assay: Antiproliferative activity against human SW480 cells assessed as inhibition of cell growth by CellTiter 96 Aqueous One Solution Cell Proliferation Assay; format: functional, cell-based
LoVo [9] = assay: Antiproliferative activity against human LoVo cells assessed as inhibition of cell growth by CellTiter 96 Aqueous One Solution Cell Proliferation Assay; format: functional, cell-based
[10] = biological target: T1, Signal transducer and activator of transcription 3 (Homo sapiens, UniProt P40763); assay: Inhibition of STAT3 (unknown origin)
T1 sequence (P40763 whole entry): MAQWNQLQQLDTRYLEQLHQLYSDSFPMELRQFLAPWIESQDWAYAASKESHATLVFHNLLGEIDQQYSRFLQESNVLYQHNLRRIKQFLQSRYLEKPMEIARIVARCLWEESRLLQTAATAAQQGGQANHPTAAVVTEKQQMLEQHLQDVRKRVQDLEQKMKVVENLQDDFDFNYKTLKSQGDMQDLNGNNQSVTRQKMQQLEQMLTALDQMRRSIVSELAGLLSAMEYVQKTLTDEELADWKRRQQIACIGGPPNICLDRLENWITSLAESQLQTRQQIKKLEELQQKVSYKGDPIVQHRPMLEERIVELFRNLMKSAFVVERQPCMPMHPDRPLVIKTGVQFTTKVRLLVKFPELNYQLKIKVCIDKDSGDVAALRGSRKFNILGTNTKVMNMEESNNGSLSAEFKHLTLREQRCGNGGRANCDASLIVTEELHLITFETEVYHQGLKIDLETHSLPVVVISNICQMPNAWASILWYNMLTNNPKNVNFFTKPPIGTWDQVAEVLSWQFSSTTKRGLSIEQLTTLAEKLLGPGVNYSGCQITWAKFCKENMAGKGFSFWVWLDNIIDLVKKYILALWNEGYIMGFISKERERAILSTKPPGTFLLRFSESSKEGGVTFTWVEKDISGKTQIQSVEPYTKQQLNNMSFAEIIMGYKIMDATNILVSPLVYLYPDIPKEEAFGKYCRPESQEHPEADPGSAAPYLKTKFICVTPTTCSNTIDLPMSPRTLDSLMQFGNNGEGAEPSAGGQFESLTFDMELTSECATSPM

HCT-116 [11] = assay: Cytotoxicity against human HCT-116 cells measured after 72 hrs by WST-1 assay; format: functional, cell-based; conditions: HCT-116, 72 h
HT-29 [12] = assay: Cytotoxicity against human HT-29 cells assessed as reduction in cell viability by MTT assay; format: functional
HCT-116 [13] = assay: Cytotoxicity against human HCT-116 cells assessed as reduction in cell viability by MTT assay; format: functional
RKO [14] = assay: Cytotoxicity against human RKO cells assessed as reduction in cell viability by MTT assay; format: functional
SW480 [15] = assay: Cytotoxicity against human SW480 cells assessed as reduction in cell viability by MTT assay; format: functional
[16] = biological target: T1, Signal transducer and activator of transcription 3; assay: Binding affinity to GFP tagged STAT3 (unknown origin) assessed as dissociation constant by microscale thermophoresis analysis
Phospholipase D1 = Phospholipase D1 (Homo sapiens, UniProt Q13393); assay: Inhibition of PLD1 (unknown origin)
Phospholipase D1, sequence (Q13393 whole entry): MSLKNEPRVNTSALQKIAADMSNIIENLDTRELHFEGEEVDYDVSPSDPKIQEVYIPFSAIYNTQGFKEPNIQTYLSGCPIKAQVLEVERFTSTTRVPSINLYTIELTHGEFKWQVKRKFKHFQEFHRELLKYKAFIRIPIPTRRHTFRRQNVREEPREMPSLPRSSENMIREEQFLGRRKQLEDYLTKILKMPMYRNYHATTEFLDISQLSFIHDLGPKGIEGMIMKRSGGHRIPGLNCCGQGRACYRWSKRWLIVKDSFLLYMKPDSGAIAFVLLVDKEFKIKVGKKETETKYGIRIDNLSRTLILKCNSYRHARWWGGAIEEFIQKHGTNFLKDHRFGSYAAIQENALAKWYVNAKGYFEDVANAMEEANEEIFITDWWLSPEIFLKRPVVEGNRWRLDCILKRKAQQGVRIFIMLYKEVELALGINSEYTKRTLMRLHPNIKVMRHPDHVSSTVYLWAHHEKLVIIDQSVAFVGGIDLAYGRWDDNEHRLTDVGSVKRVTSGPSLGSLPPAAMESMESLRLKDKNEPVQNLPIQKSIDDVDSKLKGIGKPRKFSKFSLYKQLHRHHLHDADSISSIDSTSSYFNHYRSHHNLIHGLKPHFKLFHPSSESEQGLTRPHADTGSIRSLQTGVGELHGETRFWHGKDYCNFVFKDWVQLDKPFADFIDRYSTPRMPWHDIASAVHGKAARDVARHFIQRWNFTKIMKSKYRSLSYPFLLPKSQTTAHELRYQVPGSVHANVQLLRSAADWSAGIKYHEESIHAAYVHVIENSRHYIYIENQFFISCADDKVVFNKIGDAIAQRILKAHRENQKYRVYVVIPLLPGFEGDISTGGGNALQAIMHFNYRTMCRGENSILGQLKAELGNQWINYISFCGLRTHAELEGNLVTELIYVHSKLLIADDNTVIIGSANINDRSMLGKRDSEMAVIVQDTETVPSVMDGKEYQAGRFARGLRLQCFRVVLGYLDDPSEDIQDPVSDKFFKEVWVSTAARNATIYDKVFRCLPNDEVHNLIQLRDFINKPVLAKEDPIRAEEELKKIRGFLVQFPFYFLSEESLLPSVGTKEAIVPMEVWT

DLD-1 [17] = assay: Cytotoxicity against human DLD-1 cells; format: functional
Phospholipase D2 = Phospholipase D2 (Homo sapiens, UniProt O14939); assay: Inhibition of PLD2 (unknown origin)
Phospholipase D2, sequence (O14939 whole entry): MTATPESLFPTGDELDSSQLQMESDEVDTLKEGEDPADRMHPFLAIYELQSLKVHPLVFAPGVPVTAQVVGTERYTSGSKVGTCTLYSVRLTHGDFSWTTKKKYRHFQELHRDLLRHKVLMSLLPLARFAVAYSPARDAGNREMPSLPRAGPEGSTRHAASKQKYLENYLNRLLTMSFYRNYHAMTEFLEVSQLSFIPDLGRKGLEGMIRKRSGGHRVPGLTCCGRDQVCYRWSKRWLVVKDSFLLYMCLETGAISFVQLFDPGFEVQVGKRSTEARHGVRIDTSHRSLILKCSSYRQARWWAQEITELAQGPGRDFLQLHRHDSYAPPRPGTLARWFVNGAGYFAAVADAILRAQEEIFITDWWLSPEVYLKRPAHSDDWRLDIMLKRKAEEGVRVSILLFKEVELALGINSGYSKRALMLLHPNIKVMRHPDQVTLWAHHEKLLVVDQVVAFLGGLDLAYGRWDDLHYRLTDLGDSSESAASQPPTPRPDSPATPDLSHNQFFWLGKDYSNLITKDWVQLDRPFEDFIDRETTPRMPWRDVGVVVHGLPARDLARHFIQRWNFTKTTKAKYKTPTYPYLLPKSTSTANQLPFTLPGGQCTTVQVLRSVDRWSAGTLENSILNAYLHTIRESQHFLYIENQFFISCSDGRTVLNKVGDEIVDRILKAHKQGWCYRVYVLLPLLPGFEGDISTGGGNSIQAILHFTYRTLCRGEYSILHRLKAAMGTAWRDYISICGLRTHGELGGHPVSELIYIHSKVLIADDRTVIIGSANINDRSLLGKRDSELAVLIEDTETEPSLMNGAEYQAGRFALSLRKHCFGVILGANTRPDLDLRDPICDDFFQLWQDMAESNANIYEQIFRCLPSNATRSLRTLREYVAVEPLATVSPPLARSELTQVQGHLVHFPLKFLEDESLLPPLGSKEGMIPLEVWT

HCT-116 [18] = assay: Cytotoxicity against human HCT-116 cells assessed as inhibition of cell proliferation measured after 24 hrs by MTT assay; format: functional, cell-based; conditions: HCT-116, 24 h
RKO [19] = assay: Cytotoxicity against human RKO cells assessed as inhibition of cell proliferation measured after 24 hrs by MTT assay; format: functional, cell-based
[20] = biological target: T1, Signal transducer and activator of transcription 3; assay: Binding affinity to N-terminal his tagged recombinant human STAT3 expressed in insect cells assessed as dissociation constant by biolayer interferometry assay; design: species or system Insect cell
RKO [21] = assay: Antiproliferative activity against human RKO cells assessed as inhibition of cell growth; format: functional, cell-based
HT-29 [22] = assay: Antiproliferative activity against human HT-29 cells assessed as inhibition of cell viability by CellTiter-Glo Luminescent Assay; format: functional
LoVo [23] = assay: Antiproliferative activity against human LoVo cells assessed as inhibition of cell viability by CellTiter-Glo Luminescent Assay; format: functional
DLD-1 [24] = assay: Antiproliferative activity against human DLD-1 cells assessed as inhibition of cell viability by CellTiter-Glo Luminescent Assay; format: functional
HCT-116 [25] = assay: Antiproliferative activity against human HCT-116 cells assessed as inhibition of cell viability by CellTiter-Glo Luminescent Assay; format: functional
SW-620 [26] = assay: Antiproliferative activity against human SW-620 cells assessed as inhibition of cell viability by CellTiter-Glo Luminescent Assay; format: functional
SW-620 [27] = assay: Antiproliferative activity against human SW620 cells assessed as reduction in cell viability; format: functional
SW480 [28] = assay: Antiproliferative activity against human SW480 cells assessed as reduction in cell viability; format: functional
RKO [29] = assay: Antiproliferative activity against human RKO cells assessed as inhibition of cell viability measured upto 96 hrs by CCK-8 method; format: functional
SW48 = assay: Cytotoxicity against human SW48 cells measured after 72 hrs; format: functional, cell-based; conditions: SW48, 72 h
HCT-116 [30] = assay: Cytotoxicity against human HCT-116 cells measured after 72 hrs; format: functional, cell-based; conditions: HCT-116, 72 h
HCT-116 [31] = assay: Cytotoxicity against p53 null human HCT-116 cells measured after 72 hrs; format: functional, cell-based; conditions: HCT-116, 72 h
RKO [32] = assay: Cytotoxicity against human RKO cells measured after 72 hrs; format: functional, cell-based
HT-29 [33] = assay: Cytotoxicity against human HT-29 cells measured after 72 hrs; format: functional, cell-based; conditions: HT-29, 72 h
HCT-116 [34] = assay: Antiproliferative activity against human HCT-116 cells assessed as inhibition of cell growth incubated for 24 hrs by cell-titer glo assay; format: functional
HT-29 [35] = assay: Antiproliferative activity against human HT-29 cells assessed as inhibition of cell growth incubated for 24 hrs by cell-titer glo assay; format: functional
MC-38 = assay: Antiproliferative activity against mouse MC38 cells assessed as inhibition of cell growth incubated for 24 hrs by cell-titer glo assay; format: functional
SW-620 [36] = assay: Cytotoxicity against human SW620 cells; format: functional, cell-based
HCT-116 [37] = assay: Cytotoxicity against human HCT-116 cells; format: functional, cell-based
HT-29 [38] = assay: Antiproliferative activity against human HT-29 cells; format: functional
RKO [39] = assay: Antiproliferative activity against human RKO cells by CCK-8 method; format: functional
LoVo [40] = assay: Antiproliferative activity against human LoVo cells by CCK-8 method; format: functional
SW-620 [41] = assay: Antiproliferative activity against human SW620 cells by CCK-8 method; format: functional
HCT-15 = assay: Antiproliferative activity against human HCT-15 cells by CCK-8 method; format: functional
[42] = Inhibition of NEMO/IKKbeta (unknown origin); design: species or system Homo sapiens
HCT-116 [43] = assay: Antiproliferative activity against human HCT-116 cells by CCK-8 method; format: functional
HCT-116 [44] = assay: Antiproliferative activity against human HCT-116 cells assessed as reduction in cell viability measured after 24 hrs by CCK-8 method; format: functional, cell-based; conditions: HCT-116, 24 h
SW-620 [45] = assay: Antiproliferative activity against human SW620 cells assessed as reduction in cell viability measured after 24 hrs by CCK-8 method; format: functional, cell-based; conditions: SW-620, 24 h
SW-620 [46] = assay: Antiproliferative activity in human SW620 cells measured after 12 to 24 hrs by MTT assay; format: functional, cell-based
HCT-116 [47] = assay: Antiproliferative activity in human HCT-116 cells measured after 12 to 24 hrs by MTT assay; format: functional, cell-based
HT-29 [48] = assay: Cytotoxicity against human HT-29 cells incubated for 24 hrs by MTT assay; format: functional, cell-based; conditions: HT-29, 24 h
HCT-116 [49] = assay: Cytotoxicity against human HCT-116 cells incubated for 24 hrs by MTT assay; format: functional, cell-based; conditions: HCT-116, 24 h

SMILES: CC[C@@]1(O)C(=O)OCc2c1cc1n(c2=O)Cc2cc3cc4c(cc3nc2-1)OCO4
IC (SW480 [1]): 0 nM
IC (HT-29 [2]): 0 nM

IC50 (SW-620 [3]): 7.6 µM
IC50 (HT-29 [4]): 13.8 µM
SMILES: CC(C)c1onc(-c2c(Cl)cccc2Cl)c1COc1ccc(/C=C/c2cccc(C(=O)O)c2)c(Cl)c1

IC50 (P2X purinoceptor 7): 0.13 µM
SMILES: Clc1cccc(-c2nnnn2Cc2cccnc2)c1Cl
IC (HCT-116 [5]): 10 µM
IC (SW-620 [6]): 10 µM

IC50 (SW-620 [7]): 7.33 µM
IC50 (SW480 [8]): 6.97 µM
IC50 (LoVo [9]): 7.05 µM
SMILES: CC(C)=CCc1cc(-c2coc3cc(O)c(CC=C(C)C)c(O)c3c2=O)cc(O)c1O

SMILES: COC(=O)[C@@]12OC[C@]34[C@H]([C@@H](O)[C@@H]1O)[C@@]1(C)CC(=O)C(O)=C(C)[C@@H]1C[C@H]3OC(=O)[C@H](OC(=O)/C=C(\C)C(C)(C)OC(C)=O)[C@@H]24
IC50 [10]: 2.4 pM
IC50 (HCT-116 [11]): 18.7 µM

Kd [16]: 3.3 µM
SMILES: O=C1C(Nc2ccccc2N2CCNCC2)=CC2=NS(=O)(=O)c3cccc1c32
IC (HT-29 [12]): 3 µM
IC (HCT-116 [13]): 3 µM
IC (RKO [14]): 3 µM
IC (SW480 [15]): 3 µM

SMILES: CC(=O)c1ccc2[nH]c(C(=O)Nc3cc(C(F)(F)F)cc(C(F)(F)F)c3)cc2c1
IC50 (Phospholipase D1): 0.325 µM
IC (DLD-1 [17]): 1 µM
IC50 (Phospholipase D2): 0.0151 µM

Kd [20]: 6.6 µM
SMILES: Cc1ccc(COc2ccc3c(c2)C(=O)C(=O)C2=C3OC(C)C2)cc1 (stereo not given)
IC50 (HCT-116 [18]): 4.07 µM
IC50 (RKO [19]): 3.78 µM

SMILES: COc1cc(-c2[o+]c3cc(O)cc(O[C@@H]4O[C@H](CO)[C@@H](O)[C@H](O)[C@H]4O)c3cc2O[C@@H]2O[C@H](CO[C@@H]3O[C@@H](C)[C@H](OC(=O)/C=C/c4ccc(O)cc4)C[C@H]3O)[C@@H](O)[C@H](O)[C@H]2O)cc(O)c1O
IC50 (RKO [21]): 172 µM

SMILES: C[C@@H]1CN(CC(=O)N2CC(C)(C)c3nc(CO)c(Cc4ccc(F)cc4)cc32)[C@@H](CN2CCOC[C@H]2C)CN1 [ASTX-660]
IC (HT-29 [22]): 0.5 nM
IC (LoVo [23]): 0.5 nM
IC (DLD-1 [24]): 0.5 nM
IC (HCT-116 [25]): 0.5 nM
IC (SW-620 [26]): 0.5 nM

SMILES: C[C@H]1O[C@@H](O[C@H]2[C@@H](O)C[C@H](O[C@H]3[C@@H](O)C[C@H](O[C@H]4CC[C@@]5(C)[C@H](CC[C@@H]6[C@@H]5CC[C@]5(C)[C@@H](C7=CC(=O)OC7)CC[C@]65O)C4)O[C@@H]3C)O[C@@H]2C)C[C@H](O)[C@@H]1O [DIGITOXIN]
IC (SW-620 [27]): 200 nM
IC (SW480 [28]): 200 nM

SMILES: CCN(CC)C(=S)SSC(=S)N(CC)CC [DISULFIRAM]
IC (RKO [29]): 0.1 µM

SMILES: O=C(O)CCCCC1CCSS1 (stereo not drawn) [LIPOIC ACID, ALPHA]
IC50 (SW48): 266 µM
IC50 (HCT-116 [30]): 266 µM
IC50 (HCT-116 [31]): 890 µM
IC50 (RKO [32]): 266 µM
IC50 (HT-29 [33]): 266 µM

SMILES: O=C(NC1CCN(CCCCC2(C(=O)NCC(F)(F)F)c3ccccc3-c3ccccc32)CC1)c1ccccc1-c1ccc(C(F)(F)F)cc1 [LOMITAPIDE]
IC (HCT-116 [34]): 10 µM
IC (HT-29 [35]): 10 µM
IC (MC-38): 10 µM

SMILES: CC(C)[C@@H]1C[C@@H](O)[C@H]2[C@@]1(C)CC[C@@]1(C)[C@H]3C(=CC[C@]21C)[C@@]1(C)CC[C@H](O)C(C)(C)[C@@H]1C[C@@H]3O [RUBIARBONOL B]
IC (SW-620 [36]): 10 µM
IC (HCT-116 [37]): 10 µM
IC (HT-29 [38]): 10 µM

IC50 [42]: 0.17 µM
SMILES: CC(C)=CC[C@@H](O)C1=CC(=O)c2c(O)ccc(O)c2C1=O [SHIKONIN]
IC (RKO [39]): 0.5 µM
IC (LoVo [40]): 0.5 µM
IC (SW-620 [41]): 0.5 µM
IC (HCT-15): 0.5 µM
IC (HCT-116 [43]): 0.5 µM

IC50 (HCT-116 [44]): 9.23 µM
IC50 (SW-620 [45]): 5.82 µM
SMILES: CCC(C)/C=C(\C)[C@H]1C(C)=C[C@@]2(C)C[C@@H](C)CC[C@@H]2[C@H]1C(=O)C1=C/C(=C/c2ccc(O)cc2)NC1=O (stereo not given in full) [TALAROCONVOLUTIN A]

IC50 (SW-620 [46]): 355 µM
IC50 (HCT-116 [47]): 316 µM
SMILES: C=C[C@@]12COC(=O)C(=C)[C@@H]1[C@H]1OC(=O)C(=C)[C@@H]1[C@@H](OC(=O)C(=C)CO)C2 [VERNODALIN]
IC50 (HT-29 [48]): 7.17 µM
IC50 (HCT-116 [49]): 3.17 µM
